Laboratory results reported in ChEMBL document CHEMBL1139218, “Cytotoxic benzo[j]fluoranthene metabolites from Hypoxylon truncatum IFB-18, an endophyte of Artemisia annua” (J Nat Prod, 2007).

Test: Cytotoxicity against SW1116 cells by MTT colometric method
Type: functional, cell-based
Conditions: Homo sapiens, SW 1116

Row | SMILES | IC50 [µM]
1 | O=C1C[C@H]2[C@@H]3CCC(=O)c4c(O)ccc(c43)[C@]2(O)c2cccc(O)c21 [DALDINONE C] | 49.5
2 | CO[C@H]1C[C@H]2[C@@H]3CCC(=O)c4c(O)ccc(c43)[C@]2(O)c2cccc(O)c21 [DALDINONE D] | 41
3 | O=c1[nH]cc(F)c(=O)[nH]1 [FLUOROURACIL] | 37
